We go through 27 molecules from publication PMC6385122, “Design and Synthesis of Arylamidine Derivatives as Serotonin/Norepinephrine Dual Reuptake Inhibitors” (Molecules, 2019).

Where a name gives a salt, the structure may show the parent alone.

T2 sequence (Q63380 1-617): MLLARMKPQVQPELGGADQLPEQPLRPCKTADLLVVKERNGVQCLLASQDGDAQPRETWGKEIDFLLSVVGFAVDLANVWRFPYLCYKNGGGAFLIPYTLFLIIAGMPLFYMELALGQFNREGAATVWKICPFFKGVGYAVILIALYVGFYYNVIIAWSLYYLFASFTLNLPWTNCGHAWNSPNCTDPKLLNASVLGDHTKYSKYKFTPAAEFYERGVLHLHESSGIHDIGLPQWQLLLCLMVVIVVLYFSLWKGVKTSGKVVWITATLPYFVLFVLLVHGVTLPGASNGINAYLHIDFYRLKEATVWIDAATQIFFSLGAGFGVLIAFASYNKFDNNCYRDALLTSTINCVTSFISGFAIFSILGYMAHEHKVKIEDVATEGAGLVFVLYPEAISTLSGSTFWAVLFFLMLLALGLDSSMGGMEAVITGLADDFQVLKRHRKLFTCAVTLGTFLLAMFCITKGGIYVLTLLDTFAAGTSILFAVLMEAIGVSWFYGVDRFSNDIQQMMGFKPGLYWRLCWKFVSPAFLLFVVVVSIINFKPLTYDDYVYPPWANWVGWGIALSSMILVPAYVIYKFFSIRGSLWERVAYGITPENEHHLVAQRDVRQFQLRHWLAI
T1 sequence (P31652 whole entry): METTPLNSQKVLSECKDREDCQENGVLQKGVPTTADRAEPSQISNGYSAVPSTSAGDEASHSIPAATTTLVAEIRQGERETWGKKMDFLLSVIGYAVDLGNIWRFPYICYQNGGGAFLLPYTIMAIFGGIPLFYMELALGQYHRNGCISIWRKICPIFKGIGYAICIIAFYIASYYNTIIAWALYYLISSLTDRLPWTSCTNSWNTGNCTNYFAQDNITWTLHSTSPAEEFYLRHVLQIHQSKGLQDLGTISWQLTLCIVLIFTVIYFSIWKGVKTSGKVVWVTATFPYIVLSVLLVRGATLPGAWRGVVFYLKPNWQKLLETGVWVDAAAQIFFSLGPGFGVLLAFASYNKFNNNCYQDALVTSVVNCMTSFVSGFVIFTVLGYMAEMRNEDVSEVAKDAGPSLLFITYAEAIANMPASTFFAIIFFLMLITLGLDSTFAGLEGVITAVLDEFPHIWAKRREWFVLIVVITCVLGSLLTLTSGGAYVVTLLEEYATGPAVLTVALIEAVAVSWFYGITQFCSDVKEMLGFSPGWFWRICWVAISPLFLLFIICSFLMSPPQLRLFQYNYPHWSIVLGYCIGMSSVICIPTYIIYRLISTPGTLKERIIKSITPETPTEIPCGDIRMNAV

The first data set concerns the target T1, 5-HT reuptake (5-HT transporter) (Rattus norvegicus, UniProt P31652).
T1 construct: from tissue; host or cells: Wistar rat brain (procerebrum; crude synaptosomal supernatant)
The experiment in a line: Inhibition of 5-HT reuptake in rat brain synaptosome (3H-5-HT uptake). The class given is biochemical. As to conditions: 10 μM, read-out: 5-HT reuptake percent inhibition. The protocol:
(§1) All the target compounds were evaluated for their inhibitory activity against the reuptake of 5-HT and NE at the cellular level. Rat brain tissue was used for the uptake test, which included ^3H-5-HT and ^3H-NE [15]. 1-[7,8-^3H]-Noradrenaline and 5-hydroxy-[^3H]-tryptamine trifluoroacetate were obtained from Amersham Corporation.
(§2) Adult male Wistar rats were used. Animals were killed by decapitation and the whole brain, with the exception of the brainstem and cerebellum, was quickly removed. The procerebrum region was prepared, weighed, and homogenized in 10 volumes of ice-cold 0.32 mol/L sucrose solution using a glass homogenizer. The homogenate was centrifuged at 1000× g and 4 °C for 10 min. The supernatant was decanted and used for the uptake experiments. […] For each assay, three tubes were incubated with the vehicle (20 µL) at 0 °C in an ice bath. After incubation, the tubes were immediately filtered with a cell harvester. The fiberglass filter membrane was washed three times with ice-cold saline, placed in a scintillation vial, and counted in liquid scintillation cocktail (4 mL). Active uptake was the difference between the counts per minute at 37 and 0 °C. The percent inhibition at each drug concentration was the mean of three measurements.
The inhibition is the percentage by which the read-out fell short of the control. Turning to `COc1ccc(/C(=N\Cc2ccccc2)N2CCNCC2)cc1.Cl` [Compound I-1, (E)-N-((4-Methoxyphenyl)(piperazin-1-yl)methylene)-1-phenylmethanamine hydrochloride], the inhibition at 10 µM was 65%.

The next data set concerns the target T2, NE reuptake (NE transporter) (Rattus norvegicus, UniProt Q63380).
T2 construct: from tissue; host or cells: Wistar rat brain (procerebrum; crude synaptosomal supernatant)
The experiment in a line: Inhibition of NE reuptake in rat brain synaptosome (3H-NE uptake). The format is biochemical. As to conditions: 10 μM, read-out: NE reuptake percent inhibition. The procedure: as §1, §2
Take `COc1ccc(/C(=N\Cc2ccccc2)N2CCNCC2)cc1.Cl` [Compound I-1, (E)-N-((4-Methoxyphenyl)(piperazin-1-yl)methylene)-1-phenylmethanamine hydrochloride]: the inhibition at 10 µM was 67%.

Test system in a further data set: not given
Assay: not given
Settings: not given
For orientation: melting point means the temperature, or range, at which the solid turns liquid. The molecule `Clc1cccc(/C(=N\Cc2ccccc2)N2CCNCC2)c1` (as salt: hydrochloride) [Compound I-4, (E)-N-((3-Chlorophenyl)(piperazin-1-yl)methylene)-1-phenylmethanaminehydrochloride] yielded a melting point of 235 to 237 °C.
Still for that read-out and setting: to `Clc1ccc(/C(=N\Cc2ccccc2)N2CCNCC2)cc1` (as salt: hydrochloride) [Compound I-5, (E)-N-((4-Chlorophenyl)(piperazin-1-yl)methylene)-1-phenylmethanaminehydrochloride] belongs 182 to 184 °C; to `Fc1ccc(/C(=N\Cc2ccccc2)N2CCNCC2)cc1` (as salt: hydrochloride) [Compound I-6, (E)-N-((4-Fluorophenyl)(piperazin-1-yl)methylene)-1-phenylmethanaminehydrochloride], 220 to 222 °C.
On the same count and under the same terms, to `Fc1ccccc1/C(=N\Cc1ccccc1)N1CCNCC1` (as salt: hydrochloride) [Compound I-7, (E)-N-((2-Fluorophenyl)(piperazin-1-yl)methylene)-1-phenylmethanaminehydrochloride] belongs 182 to 184 °C.
As to `N#Cc1ccc(/C(=N\Cc2ccccc2)N2CCNCC2)cc1` (as salt: hydrochloride) [Compound I-8, (E)-4-((Benzylimino)(piperazin-1-yl)methyl)benzonitrilehydrochloride], the melting point fell in the range of 205 to 207 °C.
In turn, `N#Cc1cccc(/C(=N\Cc2ccccc2)N2CCNCC2)c1` (as salt: hydrochloride) [Compound I-9, (E)-3-((Benzylimino)(piperazin-1-yl)methyl)benzonitrilehydrochloride] registered a melting point of 190 to 192 °C.
`Cc1ccc(/C(=N\Cc2ccccc2)N2CCNCC2)cc1` (as salt: hydrochloride) [Compound I-10, (E)-1-Phenyl-N-(piperazin-1-yl(p-tolyl)methylene)methanaminehydrochloride] had a melting point of 172 to 174 °C.
For the molecule `O=[N+]([O-])c1ccc(/C(=N\Cc2ccccc2)N2CCNCC2)c(Cl)c1` (as salt: hydrochloride) [Compound I-11, (E)-N-((2-Chloro-4-nitrophenyl)(piperazin-1-yl)methylene)-1-phenylmethanaminehydrochloride], the melting point lay within 195 to 197 °C.
Molecule `O=[N+]([O-])c1ccc(/C(=N\Cc2ccc(Cl)cc2)N2CCNCC2)cc1` (as salt: hydrochloride) [Compound I-12, (E)-1-(4-Chlorophenyl)-N-((4-nitrophenyl)(piperazin-1-yl)methylene)methanaminehydrochloride] showed a melting point of 172 to 174 °C.
Molecule `Clc1ccc(C/N=C(\c2ccccc2Cl)N2CCNCC2)cc1` (as salt: hydrochloride) [Compound I-13, (E)-1-(4-Chlorophenyl)-N-((2-chlorophenyl)(piperazin-1-yl)methylene)methanaminehydrochloride] had a melting point of 181 to 183 °C.
`Clc1ccc(C/N=C(\c2cccc(Cl)c2)N2CCNCC2)cc1` (as salt: hydrochloride) [Compound I-14, (E)-1-(4-Chlorophenyl)-N-((3-chlorophenyl)(piperazin-1-yl)methylene)methanaminehydrochloride] showed a melting point of 218 to 220 °C.
In turn, `Clc1ccc(C/N=C(\c2ccc(Cl)cc2)N2CCNCC2)cc1` (as salt: hydrochloride) [Compound I-15, (E)-1-(4-Chlorophenyl)-N-((4-chlorophenyl)(piperazin-1-yl)methylene)methanaminehydrochloride] displayed a melting point of 157 to 159 °C.
The molecule `Fc1ccc(/C(=N\Cc2ccc(Cl)cc2)N2CCNCC2)cc1` (as salt: hydrochloride) [Compound I-16, (E)-1-(4-Chlorophenyl)-N-((4-fluorophenyl)(piperazin-1-yl)methylene)methanaminehydrochloride] returned a melting point of 165 to 167 °C.
Regarding `Fc1ccccc1/C(=N\Cc1ccc(Cl)cc1)N1CCNCC1` (as salt: hydrochloride) [Compound I-17, (E)-1-(4-Chlorophenyl)-N-((2-fluorophenyl)(piperazin-1-yl)methylene)methanaminehydrochloride], the melting point is 215 to 217 °C.
Same read-out and setting: as for `N#Cc1ccc(/C(=N\Cc2ccc(Cl)cc2)N2CCNCC2)cc1` (as salt: hydrochloride) [Compound I-18, (E)-1-(4-Chlorophenyl)-N-((4-cyanophenyl)(piperazin-1-yl)methylene)methanaminehydrochloride], the figure is 180 to 182 °C; as for `Cc1ccc(/C(=N\Cc2ccc(Cl)cc2)N2CCNCC2)cc1` (as salt: hydrochloride) [Compound I-20, (E)-1-(4-Chlorophenyl)-N-(piperazin-1-yl(p-tolyl)methylene)methanaminehydrochloride], 183 to 185 °C; as for `COc1ccc(C/N=C(\c2ccc([N+](=O)[O-])cc2)N2CCNCC2)cc1` (as salt: hydrochloride) [Compound I-21, (E)-1-(4-Methoxyphenyl)-N-((4-nitrophenyl)(piperazin-1-yl)methylene)methanaminehydrochloride], 210 to 212 °C.
Turning to `c1ccc(/C(=N\Cc2cccc3ccccc23)N2CCNCC2)cc1` (as salt: hydrochloride) [II-1, (E)-1-(Naphthalen-1-yl)-N-(phenyl(piperazin-1-yl)methylene)methanaminehydrochloride], the melting point was in the range of 187 to 189 °C.
With `O=[N+]([O-])c1ccc(/C(=N\Cc2cccc3ccccc23)N2CCNCC2)cc1` (as salt: hydrochloride) [II-2, (E)-1-(Naphthalen-1-yl)-N-((4-nitrophenyl)(piperazin-1-yl)methylene)methanaminehydrochloride], the melting point lay within 202 to 204 °C.
Molecule `Fc1ccc(/C(=N\Cc2cccc3ccccc23)N2CCNCC2)cc1` (as salt: hydrochloride) [II-3, (E)-N-((4-Fluorophenyl)(piperazin-1-yl)methylene)-1-(naphthalen-1-yl)methanaminehydrochloride] yielded a melting point of 193 to 195 °C.
On the same count and under the same terms, as for `Clc1cccc(/C(=N\Cc2cccc3ccccc23)N2CCNCC2)c1` (as salt: hydrochloride) [II-6, (E)-N-((3-Chlorophenyl)(piperazin-1-yl)methylene)-1-(naphthalen-1-yl)methanaminehydrochloride], the figure is 198 to 200 °C; as for `Clc1ccc(/C(=N\Cc2cccc3ccccc23)N2CCNCC2)cc1` (as salt: hydrochloride) [II-7, (E)-N-((4-Chlorophenyl)(piperazin-1-yl)methylene)-1-(naphthalen-1-yl)methanaminehydrochloride], 210 to 212 °C; as for `N#Cc1ccc(/C(=N\Cc2cccc3ccccc23)N2CCNCC2)cc1` (as salt: hydrochloride) [II-8, (E)-4-(((Naphthalen-1-ylmethyl)imino)(piperazin-1-yl)methyl)benzonitrilehydrochloride], 158 to 160 °C.
The molecule `N#Cc1cccc(/C(=N\Cc2cccc3ccccc23)N2CCNCC2)c1` (as salt: hydrochloride) [II-9, (E)-3-(((Naphthalen-1-ylmethyl)imino)(piperazin-1-yl)methyl)benzonitrilehydrochloride] showed a melting point of 168 to 170 °C.
On to `Cc1ccc(/C(=N\Cc2cccc3ccccc23)N2CCNCC2)cc1` (as salt: hydrochloride) [II-10, (E)-1-(Naphthalen-1-yl)-N-(piperazin-1-yl(p-tolyl)methylene)methanaminehydrochloride], for which the melting point is 178 to 180 °C.
The same measure, in the same setting: to `O=[N+]([O-])c1cccc2c(/C(=N\Cc3ccccc3)N3CCNCC3)cccc12` (as salt: hydrochloride) [III-1, (E)-N-((5-Nitronaphthalen-1-yl)(piperazin-1-yl)methylene)-1-phenylmethanaminehydrochloride] belongs 173 to 175 °C; to `COc1ccc(/C(=N\Cc2ccccc2)N2CCNCC2)cc1.Cl` [Compound I-1, (E)-N-((4-Methoxyphenyl)(piperazin-1-yl)methylene)-1-phenylmethanamine hydrochloride], 195 to 197 °C.
